Experimental data from US20020102688A1, “Methods and products for the synthesis of oligosaccharide structures on glycoproteins, glycolipids, or as free molecules, and for the isolation of cloned genetic sequences that determine these structures” (The Regents of the University of Michigan, priority 1990, published 2002).

Target: T1, Fuc-TIII (Homo sapiens, UniProt P21217)
T1 construct: showing that this insert is essentially full-length; expressed in transfected cells; host or cells: COS-1 cells (monkey kidney), transient DEAE-dextran transfection, 1% Triton X-100 extract
T1 sequence (P21217 1-361): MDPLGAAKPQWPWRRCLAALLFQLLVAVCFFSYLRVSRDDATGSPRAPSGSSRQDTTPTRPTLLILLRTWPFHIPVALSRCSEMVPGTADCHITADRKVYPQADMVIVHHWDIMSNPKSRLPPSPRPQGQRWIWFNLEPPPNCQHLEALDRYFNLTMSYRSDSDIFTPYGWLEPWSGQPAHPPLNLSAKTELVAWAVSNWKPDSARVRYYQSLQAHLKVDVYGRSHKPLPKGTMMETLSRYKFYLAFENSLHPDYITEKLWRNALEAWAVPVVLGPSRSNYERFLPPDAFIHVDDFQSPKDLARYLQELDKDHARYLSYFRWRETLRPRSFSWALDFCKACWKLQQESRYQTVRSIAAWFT
Assay: Fucosyltransferase assay, extracts of COS-1 cells expressing the Lewis fucosyltransferase
Assay type: biochemical
Details: for Relative Activity (%) with Fuc-TIII: relative product formation rate, N-acetyllactosamine = 100, acceptor 20 mM (2-fucosyllactose 5 mM), GDP-[14C]fucose 3 μM, transfected COS-1 cell extract; for fucose transfer to acceptor: extracts containing the Lewis blood group fucosyltransferase, same conditions as Fuc-TIV
Procedure: Fucosyltransferase assays were performed in 50 mM MOPS pH 6.5, 25 MM MnCl2 10 MM L-fucose, 5 mM ATP, […] GDP-[^14C]fucose (specific activity of 600,000 cpm/nmol; 35,000 cpm per assay), 2.5 mM acceptor (e.g. 2′-fucosyllactose, N-acetyllactosamine, lactose or lacto-N-biose I), and up to 10 μl of cell extract, in a final volume of 20 μl. When determining α(1,3)FT specific activities achieved during the sib selection process, and in the analysis of the protein A-fucosyltransferase fusion protein experiments, the amount of added cell extract and incubation times were adjusted to yield (linear) reaction rates reflecting accurate specific activities. Reactions were incubated at 37° C. for 2 or 6 hours, and then terminated by the addition of 20 μl of ethanol, followed by dilution with 500 μl of H2O. The terminated, diluted reactions were then centrifuged at 15,000×g for 5 min. Fifty μl of each reaction supernatant was counted to determine total radioactivity, and 200 μl of each was fractionated by Dowex-1 chromatography. The neutral radiolabelled material eluting from the column was then counted directly as a measure of product formation. Enzyme specific activity is defined as pmol of fucose transferred from GDP-fucose to acceptor per mg cell extract protein per hour. Neutral products were also further analyzed as described below by descending paper chromatography and by HPLC to confirm their identity. Parallel reactions were done in the absence of added acceptor to allow correction for transfer to endogenous acceptor molecules and for substrate and product hydrolysis.
Cell extracts containing 1% Triton X-100 were prepared from transfected COS-1 cells. Fucosyltransferase assays were performed in a total volume of 20 μl, and contained 50 mM sodium cacodylate, pH 6.2, 5 mM ATP, 10 mM fucose, 20 mM MnCl2, 3 μM GDP-^14C-fucose, and 5 μl (30 μg protein) of cell extract. Acceptor substrates were added to a final concentration of 20 mM. Reactions were incubated at 37° C. for 1 hour and terminated by addition of 20 μl ethanol, followed by addition of 600 μl of distilled water. An aliquot of each reaction (50 μl) was subjected to scintillation counting to determine total radioactivity in the reaction. Another aliquot (200 μl) was applied to a column containing 400 μl of Dowex IX2-400, formate form. The flow through fraction, and […] of a subsequent water elution, were collected and pooled, and an aliquot was subjected to scintillation counting to quantitate incorporation of radioactive fucose into neutral product. Descending paper chromatography was used to confirm the structure of the product formed with the acceptor N-acetyllactosamine. The neutral product in the Dowex column eluate was concentrated by lyophilization, resuspended in a small volume of water, and fractionated through Whatman No. 40 in phenol/isopropanol/formic acid/water (85:5:10:100, lower layer). After chromatography (40 hours), the air-dried chromatogram was cut into 1 cm strips and the strips eluted into 2 ml of water. Radioactivity in each eluate was determined by scintillation counting after mixing with 10 ml of scintillation cocktail.
Table 2 presents the relative product formation rates obtained with low molecular weight acceptor substrates using cell extracts containing recombinant human α(1,3)fucosyltransferases expressed in transfected COS-1 cells, as described in the preceding sections. Fucosyltransferase assays were performed as described in detail in Lowe et al, J. Biol. Chem., (1991), 266:17467-17477; Weston et al, J. Biol. Chem. (1992), 267:4152-4160; and Kukowska-Latallo et al, Genes. Devel., (1990), 4:1288-1303. For each enzyme, the same extract was used, with saturating amounts of each acceptor oligosaccharide (20 mM, except for 2′-fucosylactose which was used at 5 mM), and GDP-^14C]fucose was present at 3 μM. Reaction times and enzyme amounts were adjusted to ensure a linear rate of product formation (less than 15% of the GDP-fucose substrate consumed). […]

CC(=O)N[C@@H]1[C@@H](O[C@@H]2O[C@H](CO)[C@H](O)[C@H](O)[C@H]2O)[C@H](O)[C@@H](CO)O[C@@H]1O [lacto-N-biose I]
Relative Activity (%) with Fuc-TIII: 420%

CC(=O)N[C@H]1C(O)O[C@H](CO)[C@@H](O[C@@H]2O[C@H](CO)[C@H](O)[C@H](O)[C@H]2O)[C@@H]1O (stereo partly shown) [N-acetyllactosamine]
fucose transfer to acceptor: 526 pmol/mg/h | Relative Activity (%) with Fuc-TIII: 100%

CC(=O)NC1C(O)OC(CO)C(OC2OC(CO)C(O)C(OC3(C(=O)O)CC(O)C(NC(C)=O)C(C(O)C(O)CO)O3)C2O)C1O (stereo not drawn) [α(2,3)sialyllactosamine, NeuAcα(2→3)Galβ(1→4)GlcNAc]
fucose transfer to acceptor: 297 pmol/mg/h | Relative Activity (%) with Fuc-TIII: 56%

OC[C@H]1O[C@@H](O[C@H]2[C@H](O)[C@@H](O)C(O)O[C@@H]2CO)[C@H](O)[C@@H](O)[C@H]1O (stereo partly shown) [lactose]
Relative Activity (%) with Fuc-TIII: 145%

Fucα(1,2)Galβ(1,4)Glc [2-fucosyllactose]
Relative Activity (%) with Fuc-TIII: 254%
